Key:
Type in all cases: in vivo
[1] = test system: KYSE520 tumor cell xenograft; test: Growth inhibition of xenograft in nude mice; details: orally, once daily, for 21 consecutive days
Description: (§1) Experimental method: 1) Culturing MV 4-11/KYSE520/NCI-H358 cells in a culture medium containing 10% fetal bovine serum. Harvesting tumor cells at an exponential growth phase, and resuspending in PBS to suitable concentrations for subcutaneous tumor inoculation in nude mice. 2) Subcutaneously inoculating 2-8×10^7 tumor cells at the right back of a mouse, and resuspending the cells in PBS and matrigel (1:1); observing tumor growth regularly, and randomizing mice for administration based on tumor size and mouse body weight when tumors grow to a mean volume of ˜120 mm^3-1800 mm^3. 3) Defining the day of tumor cell inoculation as Day 0. Prior to the start of dosing, weighing all animals and measuring the tumor volume with a vernier caliper. 3) Administering orally compound of examples (prepared with water for injection containing 1% Tween80 to a desired concentration for use) at a given dose for three consecutive weeks, and giving an equal amount of solvent animals in a solvent control group. Measuring diameters of the xenograft twice a week throughout the experiment, and weighing the mice were at the same time.
(§2) The calculation formula of tumor volume (TV) is: TV=½×a×b^2, wherein a and b represent length and width, respectively. The relative tumor volume (RTV) is calculated based on the measured results using the formula: RTV=Vt/V0, wherein V0 is the tumor volume measured at the time of dosing in separate cages (i.e., Day 0) and Vt is the tumor volume at each measurement. The anti-tumor activity is evaluated by the following measures: 1) relative tumor proliferation rate T/C (%), which is calculated by the following formula: T/C (%)=(TRTV/CRTV)×100%, wherein TRTV: RTV of ae treatment group; CRTV: RTV of a negative control group; 2) inhibition rate of tumor volume growth GI %, which is calculated by the following formula: GI %=[1−(TVt−TV0)/(CVt−[…])]×100%, wherein TVt is the tumor volume at each measurement in the treatment group; TV0 is the tumor volume obtained at the time of dosing in separate cages in the treatment group; CVt is the tumor volume at each measurement in the control group; CV0 is the tumor volume obtained at the time of dosing in separate cages in the control group (specific data are shown in Table 4).

[2] = test system: NCI-H358 tumor cell xenograft; test: Growth inhibition of xenograft in nude mice; details: orally, once daily, for 21 consecutive days
Description: as §1, §2

[3] = test system: MV 4-11/KYSE520/NCI-H358 tumor cell xenografts; test: Xenograft study in nude mice: tolerance and westernblot assay of tumor tissues
Description: as §1

[4] = test system: MC38 colorectal cancer xenografts; test: Growth inhibition of MC38 colorectal cancer xenografts in C57BL-6 mice; details: 1 mg/kg, orally, once daily
Description: as §1, with “MC38” for “MV 4-11/KYSE520/NCI-H358”, “Harvesting tumor cells at an exponential growth phase, and resuspending in PBS to suitable concentrations for subcutaneous tumor inoculation in nude mice.” left out, “[…]” for “2-8×10^7”, “˜50 mm^3-60” for “˜120 mm^3-1800”, “dose, intraperitoneally injecting an anti-PD-L1 antibody twice a week,” for “dose”, “two” for “three”
The calculation formula of tumor volume (TV) is: TV=½×a×b^2, wherein a and b represent length and width, respectively. The relative tumor volume (RTV) is calculated based on the measured results using the formula: RTV=Vt/V0, wherein V0 is the tumor volume measured at the time of dosing in separate cages (i.e., Day 0) and Vt is the tumor volume at each measurement. […]

Cc1nc(N2CCC3(CC2)Cc2ccccc2[C@H]3N)n2ccnc2c1Sc1ccnc(N)c1Cl [Example 1, (S)-1′-(8-((2-amino-3-chloropyridin-4-yl)thio)-7-methylimidazo [1,2-c]pyrimidin-5-yl)-1,3-dihydrospiro [indene-2,4′-piperidine]-1-amine]
T/C ([1]; 2 mg/kg): 30% | T/C ([1]; 6 mg/kg): 18% | T/C ([2]; 0.8 mg/kg): 39% | T/C ([2]; 2.5 mg/kg): 13% | inhibition of the signaling pathway in tumor tissues (westernblot) ([3]; 24 hours after the last dosing): can still inhibit the signaling pathway in tumor tissues continuously 24 hours after the last dosing | tolerance of the experimental animals ([3]; nude mice with xenografts, oral dosing for three weeks): well tolerated | T/C [4]: 60%

From US12281118B2, “Nitrogen-containing fused heterocyclic SHP2 inhibitor compound, preparation method, and use” (SHANGHAI RINGENE BIOPHARMA CO., LTD., priority 2018, dated 2025)
